In ChEMBL document CHEMBL1201862, “PubChem BioAssay data set” (2004):
The source made the active and inactive calls.

Key:
[1] = molecular target: T1, Sentrin-specific protease 6 (Homo sapiens, UniProt Q9GZR1); type: functional;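 also: Luminescence-based dose-response confirmatory assay of SENP6 inhibition, following up an ultra-high-throughput screen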
T1 sequence (Q9GZR1 whole entry): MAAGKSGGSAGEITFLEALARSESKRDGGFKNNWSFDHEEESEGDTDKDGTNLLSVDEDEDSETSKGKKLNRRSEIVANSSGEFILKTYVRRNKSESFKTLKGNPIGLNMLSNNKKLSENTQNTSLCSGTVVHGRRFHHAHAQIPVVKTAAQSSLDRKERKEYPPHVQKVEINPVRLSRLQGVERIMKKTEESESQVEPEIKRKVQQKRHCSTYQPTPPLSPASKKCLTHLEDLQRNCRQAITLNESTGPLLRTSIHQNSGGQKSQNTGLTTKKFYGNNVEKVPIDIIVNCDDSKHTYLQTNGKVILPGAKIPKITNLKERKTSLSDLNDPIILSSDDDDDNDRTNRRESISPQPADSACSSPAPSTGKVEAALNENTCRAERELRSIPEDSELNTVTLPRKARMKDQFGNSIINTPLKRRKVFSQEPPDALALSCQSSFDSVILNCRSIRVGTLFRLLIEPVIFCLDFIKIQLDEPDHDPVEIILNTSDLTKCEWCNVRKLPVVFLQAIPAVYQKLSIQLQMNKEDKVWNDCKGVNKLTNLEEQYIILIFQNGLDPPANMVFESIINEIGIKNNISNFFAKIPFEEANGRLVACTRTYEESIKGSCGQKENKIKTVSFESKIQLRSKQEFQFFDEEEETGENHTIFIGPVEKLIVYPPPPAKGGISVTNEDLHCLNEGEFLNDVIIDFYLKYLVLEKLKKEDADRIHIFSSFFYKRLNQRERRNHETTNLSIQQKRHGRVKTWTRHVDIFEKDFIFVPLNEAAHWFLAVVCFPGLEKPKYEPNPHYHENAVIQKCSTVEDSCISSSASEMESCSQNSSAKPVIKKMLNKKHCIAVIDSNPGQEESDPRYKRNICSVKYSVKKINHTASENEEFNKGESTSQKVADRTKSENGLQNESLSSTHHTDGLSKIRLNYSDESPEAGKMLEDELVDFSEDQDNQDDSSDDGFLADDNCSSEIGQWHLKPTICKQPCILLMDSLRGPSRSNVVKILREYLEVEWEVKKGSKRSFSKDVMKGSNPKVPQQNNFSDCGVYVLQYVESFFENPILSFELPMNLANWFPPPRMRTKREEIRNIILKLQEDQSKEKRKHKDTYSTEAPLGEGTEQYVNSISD

[2] = molecular target: T2, Sentrin-specific protease 8 (Homo sapiens, UniProt Q96LD8); type: functional;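 also: luminescence read-out of SENP8 inhibition, dose-response confirmation following an ultra-high-throughput screen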
T2 sequence (Q96LD8 whole entry): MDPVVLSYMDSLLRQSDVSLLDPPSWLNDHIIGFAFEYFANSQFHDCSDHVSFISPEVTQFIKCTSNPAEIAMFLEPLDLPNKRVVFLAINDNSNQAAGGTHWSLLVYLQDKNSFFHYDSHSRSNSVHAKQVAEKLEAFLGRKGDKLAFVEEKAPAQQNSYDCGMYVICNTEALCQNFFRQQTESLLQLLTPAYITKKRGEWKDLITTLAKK

[3] = molecular target: T3, Sentrin-specific protease 7 (Homo sapiens, UniProt Q9BQF6); type: functional;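 also: Luminescence-based dose-response confirmation of ultra-high-throughput screening hits, measuring inhibition of SENP7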
T3 sequence (Q9BQF6 whole entry): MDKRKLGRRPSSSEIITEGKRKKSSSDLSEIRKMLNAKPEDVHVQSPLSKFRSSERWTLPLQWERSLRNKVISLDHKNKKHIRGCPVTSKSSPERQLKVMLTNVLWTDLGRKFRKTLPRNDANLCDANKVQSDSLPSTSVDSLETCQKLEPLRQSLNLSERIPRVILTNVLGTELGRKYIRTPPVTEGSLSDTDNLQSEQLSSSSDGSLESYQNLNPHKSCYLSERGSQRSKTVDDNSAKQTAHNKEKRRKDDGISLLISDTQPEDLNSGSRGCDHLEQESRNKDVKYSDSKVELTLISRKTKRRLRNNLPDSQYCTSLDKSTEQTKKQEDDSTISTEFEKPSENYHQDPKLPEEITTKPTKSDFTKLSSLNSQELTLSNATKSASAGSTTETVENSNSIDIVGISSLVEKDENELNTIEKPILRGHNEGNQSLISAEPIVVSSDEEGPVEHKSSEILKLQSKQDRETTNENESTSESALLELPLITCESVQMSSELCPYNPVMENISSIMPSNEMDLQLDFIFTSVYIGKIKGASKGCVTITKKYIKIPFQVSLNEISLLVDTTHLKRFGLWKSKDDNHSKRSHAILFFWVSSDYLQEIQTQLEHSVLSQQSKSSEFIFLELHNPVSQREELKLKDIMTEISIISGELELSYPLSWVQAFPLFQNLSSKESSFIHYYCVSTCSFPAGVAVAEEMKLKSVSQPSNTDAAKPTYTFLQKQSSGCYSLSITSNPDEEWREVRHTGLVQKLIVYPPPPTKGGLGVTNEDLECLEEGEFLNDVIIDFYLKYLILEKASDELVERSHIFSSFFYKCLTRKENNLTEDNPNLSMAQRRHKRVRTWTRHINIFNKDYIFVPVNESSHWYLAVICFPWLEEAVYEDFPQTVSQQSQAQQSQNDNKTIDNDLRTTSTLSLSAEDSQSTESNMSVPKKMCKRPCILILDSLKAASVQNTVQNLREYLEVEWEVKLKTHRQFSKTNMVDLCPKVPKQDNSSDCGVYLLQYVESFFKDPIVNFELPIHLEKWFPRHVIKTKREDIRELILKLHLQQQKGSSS

Caspase-3 = molecular target: T4, Caspase-3 (Homo sapiens, UniProt P42574); type: functional;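 also: Dose-response selectivity test against caspase-3 for candidate inhibitors of sentrin-specific proteases (SENPs)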
T4 sequence (P42574 whole entry): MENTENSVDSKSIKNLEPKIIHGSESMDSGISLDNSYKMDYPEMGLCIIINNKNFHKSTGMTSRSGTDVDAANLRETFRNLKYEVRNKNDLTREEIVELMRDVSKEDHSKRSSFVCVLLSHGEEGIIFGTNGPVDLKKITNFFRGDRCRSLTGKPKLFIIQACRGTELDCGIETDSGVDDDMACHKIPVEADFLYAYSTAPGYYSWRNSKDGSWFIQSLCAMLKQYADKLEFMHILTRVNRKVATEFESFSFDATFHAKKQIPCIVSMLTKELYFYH

[4] = reduction of Shn3 3'UTR-driven luciferase in osteoblasts – cell-based, Clone20 osteoblasts, firefly luciferase, cherry-picked, dose response (AID 624132); type: functional;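 also: firefly luciferase luminescence from reporter carrying the Shn3 3'UTR in osteoblasts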
[5] = non-specific 3'UTR reporter inhibition in Clone20-Shn3RL – cell-based, Renilla luciferase, cherry-picked, counter-screen for Shn3 inhibitor project, dose response (AID 624133); type: functional
[6] = loss of viability in HepG2 cells – cell-based, CellTiter-Glo, cherry-picked, cytotoxicity control for Shn3 inhibitor project, dose response (AID 624134); type: functional
BJ [7] = test: BJ-TERT-LT-ST fibroblast viability loss – cell-based, RAS-independent, luminescence, dose response (AID 1935); type: functional; conditions: Homo sapiens;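 also: BJ fibroblasts immortalized with TERT plus LT and ST oncogenes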
BJ [8] = test: growth inhibition of engineered Ras-driven BJ cells – cell-based, alamar blue fluorescence, cherrypicked samples, dose response (AID 2631); type: functional; conditions: Homo sapiens;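 also: confirmatory dose-response assay in RAS-dependent BJ fibroblasts engineered with TERT, LT and ST, with cytotoxicity read by fluorescence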
BJ [9] = test: BJ-TERT fibroblast viability loss – cell-based, RAS-independent, luminescence, dose response (AID 1933); type: functional; conditions: Homo sapiens
[10] = luciferase reporter signal suppression in cells – H4 neuroglioma cells, luminescence, dose response (AID 1990); type: functional, cell-based
[11] = Luminescence Cell-Based Dose Response HTS to Identify Inhibitors of 5'UTR Stem-Loop Driven Prion Protein mRNA Translation in H4 Neuroglioblastoma Cells. [Related pubchem assays: 1827 (Project Summary), 1813 (Primary HTS)]; type: functional
[12] = alpha-synuclein stem-loop luciferase translation blockers – H4 neuroglioma cells, luminescence, confirmation (AID 1988); type: functional, cell-based
BJ [13] = test: cells; type: functional, cell-based; conditions: Homo sapiens
[14] = DRD fibroblast viability loss – cell-based, non-viral oncogenic, luminescence, dose response (AID 1934); type: functional; conditions: Homo sapiens
[15] = toxicity toward HepG2 liver cells – cell-based, plate reader, cherry-pick, antagonist series, cytotoxicity control, dose response (AID 743416); type: functional
[16] = A549 cell cytotoxicity, dose response, cytotoxicity control, plate reader, cherry-pick, antagonist series (AID 743412); type: functional, cell-based
[17] = blockade of melanocortin 4 receptor signaling – cell-based, plate reader, cherry pick, counter-screen for LGR2 antagonist project, dose response (AID 743444); type: functional;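 also: transfected HEK 293 cells stimulated with alpha-MSH peptide; potency of inhibitors of the alpha-MSH evoked signal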
[18] = blockers of bursicon-stimulated LGR2 cAMP reporter – cell-based, HEK293, CRE-luciferase reporter, cherry pick, set 2, dose response (AID 743343); type: functional;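 also: transfected cells were stimulated with diluted bursicon conditioned medium after compound addition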
[19] = viability loss in HEK293 cells – cell-based, plate reader, cherry-picked samples, cytotoxicity control, dose response (AID 743446); type: functional
Streptokinase A = molecular target: T5, Streptokinase A (Streptococcus pyogenes serotype M1, UniProt P10520); test: viability-normalized secreted streptokinase activity reduction – plasminogen activation absorbance, OD405, dose response (AID 1914); type: functional, Streptococcus pyogenes M1 GAS;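 also: secreted streptokinase activity via plasminogen activation per viability signal from cell pellet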
T5 sequence (P10520 whole entry): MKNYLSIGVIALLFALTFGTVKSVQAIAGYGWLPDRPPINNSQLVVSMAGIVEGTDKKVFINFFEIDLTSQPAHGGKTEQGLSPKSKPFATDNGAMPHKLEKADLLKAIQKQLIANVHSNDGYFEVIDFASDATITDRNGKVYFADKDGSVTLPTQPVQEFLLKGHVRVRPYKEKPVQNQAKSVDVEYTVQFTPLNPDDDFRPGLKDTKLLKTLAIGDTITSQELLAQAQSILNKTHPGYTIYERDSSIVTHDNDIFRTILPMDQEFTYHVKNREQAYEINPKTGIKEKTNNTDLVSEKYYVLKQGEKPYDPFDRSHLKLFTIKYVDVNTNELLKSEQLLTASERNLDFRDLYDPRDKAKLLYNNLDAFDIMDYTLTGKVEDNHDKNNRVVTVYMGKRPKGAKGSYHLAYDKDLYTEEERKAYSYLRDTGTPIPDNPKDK

[20] = system: Streptococcus sp. 'group A'; test: Streptococcus pyogenes SK(-)GAS viability under kanamycin – luminescence, BacTiterGlo, confirmation, counter-screen for streptokinase expression inhibitor project, dose response (AID 1900); type: functional, organism-based
Streptococcus = test: GAS UMAA2166 growth inhibition – luminescence, BacTiterGlo, counter-screen for streptokinase expression inhibitor project, dose response (AID 1915); type: functional, organism-based;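 also: potency for reduction of bacterial viability or growth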
[21] = HIV-1 AD8 envelope cell-cell fusion blockers – cherry-pick, dose response (AID 652062); type: functional, cell-based;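 also: luciferase signal from cell-cell fusion driven by HIV-1 clade B AD8 Env; potency is for inhibitors of fusion seen as a drop in luminescence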

Row | SMILES | IC50 [1] | IC50 [2] | IC50 [3] | IC50 (Caspase-3) | AC50 [4] | AC50 [5] | AC50 [6] | also measured
1 | Cc1cccc(-n2ncc3c(N4CCC(C)CC4)ncnc32)c1 | 21.9 µM (active) | 27.9 µM (active) | 7.97 µM (active) | 19.5 µM (active) |  |  |  | 
2 | COc1ccc(NC(=O)CSc2ncccc2C(=O)OC(C)C)cc1OC |  |  |  |  | 4.1 µM (active) | 1.54 µM (active) | 41.9 µM (active) | 
3 | N#Cc1ccsc1NC(=O)CSc1nnnn1-c1ccc(O)cc1 | 30.5 µM (active) | 36.8 µM (active) | 10.3 µM (active) | 20.6 µM (active) |  |  |  | 
4 | CCOc1ccc(CC(=O)Nc2ccc(NC(=O)c3ccco3)cc2)cc1OCC |  |  |  |  |  |  |  | EC50 (BJ [7]): 9.89 µM (inconclusive); EC50 (BJ [8]): > 66.7 µM (inactive); EC50 (BJ [9]): > 150 µM (not active); EC50 [10]: 11 µM (active); EC50 [11]: 6.05 µM (active); EC50 [12]: 8.44 µM (active); EC50 (BJ [13]): 2.55 µM (active); EC50 [14]: > 150 µM (not active)
5 | CC(=O)c1ccccc1OCCOCCOCCOc1ccccc1C(C)=O |  |  |  |  |  |  |  | EC50 (BJ [7]): > 150 µM (inconclusive); EC50 (BJ [8]): > 133 µM (inactive); EC50 (BJ [9]): 27 µM (active); EC50 [10]: > 120 µM (not active); EC50 [12]: > 120 µM (not active); EC50 (BJ [13]): > 150 µM (not active); EC50 [14]: > 150 µM (not active)
6 | C/C(=N\Nc1ccc([N+](=O)[O-])cc1)c1ccco1 | 10.6 µM (active) | 73.8 µM (active) | 6.51 µM (active) | 18.4 µM (active) |  |  |  | 
7 | Oc1nc2ccccc2n1C1CCN(C(c2cccs2)c2nnnn2Cc2ccccc2)CC1 (stereo not given) |  |  |  |  | 2.98 µM (active) | 6.11 µM (active) | > 70 µM (inactive) | AC50 [15]: 44.4 µM (active); AC50 [16]: 13.7 µM (active); AC50 [17]: 1.76 µM (active); AC50 [18]: 2.74 µM (active); AC50 [19]: 29.8 µM (active)
8 | C/C(=N\OC(=O)c1ccc(Br)cc1)c1ccccn1 | 1.31 µM (active) | 2.43 µM (active) | 1.01 µM (active) | 1.26 µM (active) |  |  |  | 
9 | O=C(CSc1ccccn1)NCc1ccc2c(c1)OCO2 |  |  |  |  |  |  |  | EC50 (BJ [8]): > 133 µM (inactive)
10 | COc1cccc(C(=O)Oc2ccc(/C=N/Nc3ccc(C(=O)O)cc3)cc2OC)c1 | 14.3 µM (active) | 17.1 µM (active) | 12.3 µM (active) | 74.2 µM (active) |  |  |  | EC50 (Streptokinase A): > 150 µM (not active); EC50 [20]: 5 µM (active); EC50 (Streptococcus): 19 µM (active)
11 | COc1ccc(-c2nc(NC(=O)C3CC(=O)N(c4ccc5c(c4)OCCO5)C3)sc2C)cc1 (stereo not given) |  |  |  |  | 5.24 µM (active) | 13.4 µM (active) | 47.3 µM (active) | EC50 (Streptokinase A): > 150 µM (not active); EC50 [20]: 21.7 µM (active); EC50 (Streptococcus): 63.6 µM (active)
12 | CCN(C(=O)C1CCN(c2nc(-c3ccc(OC)cc3)no2)CC1)c1ccc(OC)cc1 |  |  |  |  | 3.17 µM (active) | 11.8 µM (active) | 62.5 µM (active) | 
13 | CC1CN(S(=O)(=O)c2cc(C(=O)NCCC3=CCCCC3)ccc2Cl)CC(C)O1 (stereo not given) |  |  |  |  |  |  |  | AC50 [21]: 7.96 µM (active)
